This is an account of results in US20070042339A1, “Preservation of biomaterials with transported preservation agents” (priority 2003, published 2007).

The subject of data set [1] is hepatocytes. It counts as cell-based. The conditions noted are these: rat, 60 min, 200 mM. As for the experimental part:
HTS without sugar supplement was used for control samples. […] Following storage, samples were rapidly thawed in 37° C. H2O for 2 min with gentle agitation.

The test system of data set [2] is lymphocytes, fibroblasts and hepatocytes. As to the kind of experiment: MTT assay of metabolic activity after glucose loading (Example 1). Conditions: 1 hr at 37° C. The data set is classed as cell-based, murine; rat. As to the method:
However, it was considered to be possible that high accumulation of glucose compounds change metabolic activity of the cells. Therefore, metabolic activity after sugar loading was measured with the MTT assay. MTT assay is a colorimetric assay based on the activity of mitochondrial dehydrogenase activity. […] Cells were seeded on 96-well culture plates with 100 μL defined medium supplemented with various glucose compounds according to the experimental design for 1 hr at 37° C. At the end of the treatment period, 10 μL of MT solution (5 mg/mL) were added and incubated for 2 hrs at 37° C. At this time, 100 μL of detergent solution were added to the wells and after 24 hrs of incubation at 25° C., and the absorption value at 570 nm was measured in a microtiter reader.
A general note: Tetrazolium dyes change colour on reduction, which living cells bring about.

The subject of data set [3] is murine B lymphocytes, murine fibroblasts, and rat primary hepatocytes. As to the kind of experiment: Cryopreservation with non-metabolizable glucose compounds, post-thaw trypan blue viability (Example 1). Conditions: 0.2 M loading 60 min. The data set is classed as cell-based. As for the experimental part: At first, these compounds were tested on cryopreservation, which is most common protocol for preservation of biomaterials. Glucose compounds are thought to prevent damaging effects of protein and lipid-membranes during storage. In addition, glucose compounds have a high glass transition temperature and cause the formation of stable glasses during storage. Cells were incubated with glucose-free DMEM or glucose-free DMEM with 0.2 M 2DG, or 0.2 M 3OMG for 60 min at 37° C. […] Samples were stored for up to 14 days. Following storage, samples were rapidly thawed in 37° C. H2O for 80 sec with gentle agitation. […] Samples were then centrifuged, supernatant decanted, and cells were resuspended in culture medium.

Data set [4] deals with hepatocytes. The data set is classed as cell-based, rat. An excerpt:
The sandwich culture is a long-term culture technique that results in stable and differentiated hepatocytes. We evaluated albumin synthesis, urea production, and cytochrome P450 (CYP) activity of frozen-thawed hepatocytes as markers of synthetic, metabolic, and detoxification abilities of hepatocytes. Albumin production of 3OMG-loaded and cryopreserved hepatocytes stabilized following 7 days in culture (FIG. 11A). Daily average of albumin production (day 7-13) from 3OMG-loaded hepatocytes was approximately 60% of non-frozen control (1.29±0.19 μg and 2.14±0.26 μg, respectively) with statistically significant difference (p=0.014). […] The CYP activity was measured on day 3 and 7 after thawing.

The subject of data set [5] is lymphocytes, fibroblasts and hepatocytes. It counts as cell-based, murine; rat. As for the experimental part:
The conventional permeable cryoprotectants such as DMSO and glycerol benefit cells for preservation, but they are known to be toxic to the cells at the same time. […] The toxicity of various glucose compounds, D-glucose and DMSO was examined after loading. Cells were incubated with glucose-free DMEM supplemented with 0.2 M 3OMG, with 0.2 M 2DG or 1.4 M DMSO for 60 min at 37° C. After loading, calcein and ethidium homodimer were added to cell suspensions to assess viability. Cells were run through Beckton-Dickinson FACSCalibur flowcytometer to take emission reading at 530 nm and 630 nm of 5000 particles. High green and low red fluorescence (calcein positive) were scored as live, whereas high red and low green (ethidium positive) were scored dead.

Like-named read-outs stand apart in the source and are kept apart here.

As to `OC[C@H]1OC(O)C[C@@H](O)[C@@H]1O` (mixture of isomers) [2DG, 2-deoxy-D-glucose], the “post-thaw viability, percent of non-frozen samples” value in data set [1] is 15%. In addition, in data set [2] (lymphocytes and fibroblasts), the “metabolic activity (MTT) after loading, lymphocytes and fibroblasts” value is reported as “significant loss of metabolic activity”. Further, in data set [2] (primary isolated hepatocytes), the “metabolic activity (MTT) after loading, hepatocytes” value was “not down-regulated”. Also, the “viability after cryopreservation compared to non-glucose control” value in data set [3] is listed as “significantly high viability”.
In the case of `O=C[C@H](O)[C@@H](O)[C@H](O)[C@H](O)CO` [D-glucose], the “post-thaw viability, percent of non-frozen samples” value in data set [1] was < 10%. Besides, the “hepatospecific functions (albumin, urea, CYP) in long-term culture after cryopreservation” value in data set [4] is “completely lost these functions in 5 days”.
Turning to `C[S+](C)[O-]` [DMSO, dimethylsulfoxide], in data set [5], the “toxicity to the cells (percentage of dead cells after incubation)” value was “significant toxicity”.
In the case of `OC[C@H]1O[C@@](CO)(O[C@H]2O[C@H](CO)[C@@H](O)[C@H](O)[C@H]2O)[C@@H](O)[C@@H]1O` [sucrose], the “hepatospecific functions (albumin, urea, CYP) in long-term culture after cryopreservation” value in data set [4] (collagen sandwich culture, 14 days) is given as “completely lost these functions in 5 days”.
